Key:
hCA XII [1] = target: T1, hCA XII (Homo sapiens, UniProt O43570); test: stopped-flow CO2 hydrase assay; assay type: biochemical
T1 construct: gene CA12; recombinant, obtained in-house

hCA IX [2] = target: T2, hCA IX (Homo sapiens, UniProt Q16790); test: stopped-flow CO2 hydrase assay; assay type: biochemical
T2 construct: gene CA9; recombinant, obtained in-house

hCA XII [3] = target: T1, hCA XII; test: biochemical; design: Stopped-flow CO2 hydrase assay, phenol red absorbance at 557 nm, KI by Cheng-Prusoff
Protocol: (§1) An Applied Photophysics stopped-flow instrument has been used for assaying the CA catalysed CO2 hydration activity. Phenol red (at a concentration of 0.2 mM) has been used as indicator, working at the absorbance maximum of 557 nm, with 20 mM Hepes (pH 7.5) as buffer, and 20 mM Na2SO4 (for maintaining constant the ionic strength), following the initial rates of the CA-catalyzed CO2 hydration reaction for a period of 10–100 s. The CO2 concentrations ranged from 1.7 to 17 mM for the determination of the kinetic parameters and inhibition constants. For each inhibitor at least six traces of the initial 5–10% of the reaction have been used for determining the initial velocity. The uncatalyzed rates were determined in the same manner and subtracted from the total observed rates. Stock solutions of inhibitor (0.1 mM) were prepared in distilled-deionized water and dilutions up to 0.01 nM were done thereafter with the assay buffer. Inhibitor and enzyme solutions were preincubated together for 15 min at room temperature prior to assay, to allow for the formation of the E-I complex. The inhibition constants were obtained by non-linear least-squares methods using PRISM 3 and the Cheng–Prusoff equation, as reported earlier, and represent the mean from at least three different determinations. All CA isoforms were recombinant ones obtained in-house as reported earlier. […] DCH/CO-RM derivatives 1–10 were therefore investigated as inhibitors of the hCAs I, II, IX, and XII by means of the Stopped-Flow CO2 hydrase assay.

hCA IX [4] = target: T2, hCA IX; test: biochemical; design: Stopped-flow CO2 hydrase assay, phenol red absorbance at 557 nm, KI by Cheng-Prusoff
Protocol: as §1

hCA IX [5] = target: T2, hCA IX; test: stopped-flow CO2 hydrase assay; assay type: biochemical; details: CO2 […], […] Hepes pH […] Na2SO4, […] min preincubation at room temperature
hCA XII [6] = target: T1, hCA XII; test: stopped-flow CO2 hydrase assay; assay type: biochemical; details: CO2 […], […] Hepes pH […] Na2SO4, […] min preincubation at room temperature
hCA I = target: T3, hCA I (Homo sapiens, UniProt P00915); test: biochemical; design: Stopped-flow CO2 hydrase assay, phenol red absorbance at 557 nm, KI by Cheng-Prusoff
T3 construct: gene CA1; recombinant, obtained in-house
Protocol: as §1

hCA II = target: T4, hCA II (Homo sapiens, UniProt P00918); test: biochemical; design: Stopped-flow CO2 hydrase assay, phenol red absorbance at 557 nm, KI by Cheng-Prusoff
T4 construct: gene CA2; recombinant, obtained in-house
Protocol: as §1

T1 sequence (O43570 30-289 limits assumed): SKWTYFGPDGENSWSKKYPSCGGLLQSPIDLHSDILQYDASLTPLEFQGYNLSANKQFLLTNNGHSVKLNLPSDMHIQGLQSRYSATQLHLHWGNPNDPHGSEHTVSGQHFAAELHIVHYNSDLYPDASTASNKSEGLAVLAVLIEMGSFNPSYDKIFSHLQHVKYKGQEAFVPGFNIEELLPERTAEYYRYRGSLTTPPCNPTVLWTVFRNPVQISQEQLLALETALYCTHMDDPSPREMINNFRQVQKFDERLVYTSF
T3 sequence (P00915 2-261): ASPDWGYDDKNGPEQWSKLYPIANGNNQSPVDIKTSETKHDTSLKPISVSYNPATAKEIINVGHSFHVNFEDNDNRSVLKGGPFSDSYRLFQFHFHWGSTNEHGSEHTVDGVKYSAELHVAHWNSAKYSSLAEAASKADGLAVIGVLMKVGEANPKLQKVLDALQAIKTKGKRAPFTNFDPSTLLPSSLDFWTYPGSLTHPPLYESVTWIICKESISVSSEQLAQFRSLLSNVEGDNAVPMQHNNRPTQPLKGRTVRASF

Row | SMILES | Ki (hCA XII [3]) | Ki (hCA IX [4]) | Ki (hCA I) | Ki (hCA II) | also measured
1 | C#CCOc1ccc2oc(=O)c(C(=O)c3ccccc3)cc2c1 [g, 3-benzoyl-6-(prop-2-yn-1-yloxy)-2H-chromen-2-one] |  |  |  |  | Ki (hCA XII [1]): 0.353 µM; Ki (hCA IX [2]): 0.315 µM
2 | C#CCN1C(=O)C=C(C)OS1(=O)=O [b, 6-methyl-3-(prop-2-yn-1-yl)-1,2,3-oxathiazin-4(3H)-one 2,2-dioxide] | 378 nM | 358 nM |  |  | KI (hCA IX [5]): compound b exhibited a loss of inhibitory activity after the CO releasing group linkage; KI (hCA XII [6]): Compounds a and b showed better inhibitory activity against isoform XII
3 | C#CCOC1=NS(=O)(=O)OC(C)=C1 [a] |  |  |  |  | Ki (hCA IX [2]; CO2 […], […] Hepes pH […] Na2SO4, […] min preincubation at room temperature): 0.252 µM
4 | C#CCOc1cccc2cc(C(=O)OCC)c(=O)oc12 [h, ethyl 2-oxo-8-(prop-2-yn-1-yloxy)-2H-chromene-3-carboxylate] |  |  | > 100000 nM | > 100000 nM | 

The next lines start with results.

Row | Ki (hCA XII [3]) | Ki (hCA IX [4]) | Ki (hCA I) | Ki (hCA II) | SMILES | also measured
5 | > 100000 nM | > 100000 nM | > 100000 nM | > 100000 nM | C#CCOc1ccc(-c2nc3ccccc3n2-c2ccccc2)cc1 [l] | 
6 | > 100000 nM | > 100000 nM | > 100000 nM | > 100000 nM | C#CCOc1ccc(C2=NN(C(C)=O)C(c3ccccc3OC)C2)cc1 (stereo not shown) [i] | 
7 | 4920 nM |  | > 100000 nM | > 100000 nM | C#CCOc1cccc2cc(C(=O)c3ccccc3)c(=O)oc12 [f, 3-benzoyl-8-(prop-2-yn-1-yloxy)-2H-chromen-2-one] | KI (hCA XII [6]): maintained unchanged their inhibitory activity against hCA XII; Ki (hCA IX [2]): 0.695 µM

— publication PMC7824903, “Dual Carbonic Anhydrase IX/XII Inhibitors and Carbon Monoxide Releasing Molecules Modulate LPS-Mediated Inflammation in Mouse Macrophages” (Antioxidants, 2021)
